Measured values from the supplement of paper PMC10307832.

What was measured:
Test in all cases: relative viability (nuclei count vs DMSO), 5 days (fraction); higher = more cells survive
Bortezomib + OSI-027 = compound: CC(C)C[C@H](NC(=O)[C@H](Cc1ccccc1)NC(=O)c1cnccn1)B(O)O [Bortezomib] + COc1cccc2cc(-c3nc([C@H]4CC[C@H](C(=O)O)CC4)n4ncnc(N)c34)[nH]c12 [OSI-027] (partner 0.5 µM)
Outline: (§1)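 Relative viability is defined as nuclei in treated wells over nuclei in vehicle wells. Duplicate plates were run and medians reported. Lung cancer cell lines in 1536-well plates were dosed by pin tool one day after seeding, with one drug or with a fixed anchor-drug dose plus five library-drug doses (not always all listed) in √10 steps, and nuclei were counted after 5 days.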

[1] = compound: CC1=CC(=NN1)NC2=CC(=NC(=N2)/C=C/C3=CC=CC=C3)N4CCN(CC4)C + C[C@@H](Oc1cc(-c2cnn(C3CCNCC3)c2)cnc1N)c1c(Cl)ccc(F)c1Cl [Crizotinib] (partner 1 µM)
Outline: as §1

[2] = compound: CC1=CC(=NN1)NC2=CC(=NC(=N2)/C=C/C3=CC=CC=C3)N4CCN(CC4)C + Cc1nc(Nc2ncc(C(=O)Nc3c(C)cccc3Cl)s2)cc(N2CCN(CCO)CC2)n1 [Dasatinib] (partner 0.075 µM)
Outline: as §1

Obatoclax + Bortezomib = compound: COC1=CC(c2cc3ccccc3[nH]2)=N/C1=C\c1[nH]c(C)cc1C [Obatoclax] + CC(C)C[C@H](NC(=O)[C@H](Cc1ccccc1)NC(=O)c1cnccn1)B(O)O [Bortezomib] (partner 0.002 µM)
Outline: as §1

NCI-H650
relative viability (Bortezomib + OSI-027; first compound 0.000632 µM): 0.522
relative viability (Bortezomib + OSI-027; first compound 0.002 µM): 0.536
relative viability (Bortezomib + OSI-027; first compound 0.006325 µM): 0.595
relative viability (Bortezomib + OSI-027; first compound 0.02 µM): 0.207
relative viability ([1]; first compound 0.08 µM): 0.916
relative viability ([1]; first compound 0.253 µM): 0.739
relative viability ([1]; first compound 0.8 µM): 0.515
relative viability ([1]; first compound 2.53 µM): 0.358
relative viability ([1]; first compound 8 µM): 0.188
relative viability ([2]; first compound 0.253 µM): 0.507
relative viability ([2]; first compound 0.8 µM): 0.517
relative viability ([2]; first compound 2.53 µM): 0.352
relative viability ([2]; first compound 8 µM): 0.195
relative viability (Obatoclax + Bortezomib; first compound 0.01 µM): 0.795
relative viability (Obatoclax + Bortezomib; first compound 0.03162 µM): 0.732
relative viability (Obatoclax + Bortezomib; first compound 0.1 µM): 0.455
relative viability (Obatoclax + Bortezomib; first compound 0.3162 µM): 0.504
relative viability (Obatoclax + Bortezomib; first compound 1 µM): 0.337
